PubChem BioAssay AID2202554 (NIEHS Division of Translational Toxicology (DTT))
Results filed as inconclusive are left out. Activity calls are given as the source filed them. How the calls were made is not given here. Residues, ends and D or L forms follow the SMILES beside them.

Each molecule was assayed on S. typhimurium/E. coli reverse mutation, colony counts (assay: Bacterial reverse mutation test (aka Ames test) summary data).
Procedure, shortened: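 S. typhimurium his⁻ strains (TA97–TA1538) and E. coli WP2 uvrA pKM101 trp⁻, dosed over a range with or without rat, hamster or mouse liver S9. Preincubated 20 min at 37° C (or plate incorporation), plated in agar, incubated usually two days. Revertant colonies counted against negative controls.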

**Q.** Which outcome does the source give for `ClC(Cl)(Cl)CC1CO1` (centres undefined) here?
**A.** active; positive

**Q.** Which outcome does the source give for `Oc1cccc(O)c1O` here?
**A.** active; positive

**Q.** For `CCCCC/C=C\C/C=C\CCCCCCCC(=O)O`, which outcome is on record?
**A.** inactive; negative

**Q.** Which outcome does the source give for `Oc1ccccc1O` here?
**A.** inactive; negative

**Q.** With `O=C(O)C(Cl)(Br)Br` as the molecule, how does the outcome read?
**A.** active; positive

**Q.** `FC(F)(F)c1ccccc1Cl` was tested. Which outcome did it give?
**A.** inactive; negative

**Q.** For `CCCCCC(=O)O`, which outcome is on record?
**A.** inactive; negative

**Q.** How did the outcome turn out when `CCCNC(=O)NS(=O)(=O)c1ccc(Cl)cc1` was run?
**A.** inactive; negative

**Q.** `CCN(CC)c1ccc([N+](=O)[O-])cc1` was tested. Which outcome did it give?
**A.** active; positive

**Q.** How did the outcome turn out when `C1CNCCN1` was run?
**A.** inactive; negative

**Q.** Which outcome does the source give for `Clc1ccc(C(c2ccc(Cl)cc2)C(Cl)(Cl)Cl)cc1` here?
**A.** inactive; negative

**Q.** For `C=C(C)C(=O)OCCCC`, which outcome is on record?
**A.** inactive; negative

**Q.** `Nc1ccccc1N` was tested. Which outcome did it give?
**A.** active; positive

**Q.** With `Nc1cccc(Cl)c1` as the molecule, how does the outcome read?
**A.** inactive; negative

**Q.** With `CCc1nc(N)nc(N)c1-c1ccc(Cl)cc1` as the molecule, how does the outcome read?
**A.** inactive; negative

**Q.** `NC(=Nc1ccccc1)Nc1ccccc1` was tested. Which outcome did it give?
**A.** active; weakly positive

**Q.** For `COC(=O)/C=C/C(C)=C\C=C\C(C)=C\C=C\C=C(C)\C=C\C=C(C)\C=C\C(=O)O`, which outcome is on record?
**A.** active; positive

**Q.** For `N#CCCO`, which outcome is on record?
**A.** inactive; negative

**Q.** For `Nc1ccc(N)c(Cl)c1`, which outcome is on record?
**A.** active; positive

**Q.** How did the outcome turn out when `O=c1ccc(=O)[nH][nH]1` was run?
**A.** inactive; negative

**Q.** Which outcome does the source give for `ClCCOCCCl` here?
**A.** active; weakly positive

**Q.** Which outcome does the source give for `C1CCC2OC2C1` (centres undefined) here?
**A.** active; positive

**Q.** Which outcome does the source give for `CNCCO` here?
**A.** inactive; negative

**Q.** How did the outcome turn out when `Brc1ccc(Oc2ccc(Br)cc2Br)c(Br)c1` was run?
**A.** inactive; negative

**Q.** Which outcome does the source give for `CCCCOC(=O)c1ccc(N)cc1` here?
**A.** inactive; negative

**Q.** For `CCCCCCCCOP(=O)(OCCCCCCCC)OCCCCCCCC`, which outcome is on record?
**A.** inactive; negative

**Q.** How did the outcome turn out when `CCCCC(CC)CNCC(CC)CCCC` (centres undefined) was run?
**A.** inactive; negative

**Q.** How did the outcome turn out when `CCOC(C)OCC` was run?
**A.** active; positive

**Q.** With `c1ccc2[nH]cnc2c1` as the molecule, how does the outcome read?
**A.** inactive; negative

**Q.** With `Cc1cc(C)cc(O)c1` as the molecule, how does the outcome read?
**A.** inactive; negative

**Q.** For `CCCCC(CC)COC(=O)c1cccc(C(=O)OCC(CC)CCCC)c1` (centres undefined), which outcome is on record?
**A.** inactive; negative

**Q.** For `Oc1cc(Cl)c(Cl)c(Cl)c1Cl`, which outcome is on record?
**A.** inactive; negative

**Q.** How did the outcome turn out when `CC(C)=CCC1CCCC1=O` (centres undefined) was run?
**A.** inactive; negative

**Q.** How did the outcome turn out when `O=[N+]([O-])c1ccc(F)c([N+](=O)[O-])c1` was run?
**A.** active; positive

**Q.** How did the outcome turn out when `Nc1ncnc2c1ncn2[C@H]1CC[C@@H](CO)O1` was run?
**A.** active; positive

**Q.** `CN(C)C=O` was tested. Which outcome did it give?
**A.** inactive; negative

**Q.** For `C=CC(=O)OCCN(C)C`, which outcome is on record?
**A.** inactive; negative

**Q.** With `FCC1CO1` (centres undefined) as the molecule, how does the outcome read?
**A.** active; positive

**Q.** Which outcome does the source give for `O=Cc1ccc(Cl)cc1` here?
**A.** inactive; negative

**Q.** With `CC(C)c1ccccc1` as the molecule, how does the outcome read?
**A.** inactive; negative

**Q.** How did the outcome turn out when `C=CCc1ccc(O)c(OC)c1` was run?
**A.** inactive; negative

**Q.** With `CCOC(=O)CC(C)O` (centres undefined) as the molecule, how does the outcome read?
**A.** inactive; negative

**Q.** For `C[N+](C)(C)CCCl`, which outcome is on record?
**A.** inactive; negative

**Q.** Which outcome does the source give for `CCCC(O)C(CC)CO` (centres undefined) here?
**A.** inactive; negative

**Q.** With `ICCc1ccccc1` as the molecule, how does the outcome read?
**A.** inactive; negative

**Q.** How did the outcome turn out when `COC=O` was run?
**A.** inactive; negative

**Q.** For `Cc1c(O)cccc1C(=O)N[C@@H](CSc1ccccc1)[C@H](O)CN1C[C@H]2CCCC[C@H]2C[C@H]1C(=O)NC(C)(C)C`, which outcome is on record?
**A.** inactive; negative

**Q.** Which outcome does the source give for `c1ccc2c(c1)CCNC2` here?
**A.** inactive; negative

**Q.** How did the outcome turn out when `CCCC=C(C=O)CC` was run?
**A.** inactive; negative

**Q.** With `CN(C)CCCN1c2ccccc2Sc2ccc(Cl)cc21` as the molecule, how does the outcome read?
**A.** inactive; negative

**Q.** Which outcome does the source give for `CCCCOC(=O)c1ccc(O)cc1` here?
**A.** inactive; negative

**Q.** For `C1CCC2CCCCC2C1` (centres undefined), which outcome is on record?
**A.** inactive; negative

**Q.** How did the outcome turn out when `CCCCCC=CC=CC=O` was run?
**A.** inactive; negative

**Q.** How did the outcome turn out when `CCNc1cccc(O)c1` was run?
**A.** active; positive

**Q.** With `Clc1ccc(Cl)c(Cl)c1` as the molecule, how does the outcome read?
**A.** inactive; negative

**Q.** For `ClC=CC[N+]12CN3CN(CN(C3)C1)C2`, which outcome is on record?
**A.** active; weakly positive

**Q.** How did the outcome turn out when `Cc1ccccc1C(=O)O` was run?
**A.** inactive; negative

**Q.** Which outcome does the source give for `O[C@H]([C@H](O)[C@@H](O)CBr)[C@H](O)CBr` here?
**A.** active; positive

**Q.** Which outcome does the source give for `OC[C@@H](O)[C@@H](O)[C@H](O)[C@H](O)CO` here?
**A.** inactive; negative

**Q.** `Cc1c[nH]c(=S)[nH]c1=O` was tested. Which outcome did it give?
**A.** inactive; negative

**Q.** `Cc1cccc(N)c1` was tested. Which outcome did it give?
**A.** inactive; negative

**Q.** With `COC(=O)[C@H](Cc1ccccc1)NC(=O)[C@@H](N)CC(=O)O` (H-Asp-Phe-OMe) as the molecule, how does the outcome read?
**A.** inactive; negative

**Q.** How did the outcome turn out when `Nc1ccc(Sc2ccc(N)cc2)cc1` was run?
**A.** active; positive

**Q.** For `CCOP(=S)(OCC)Oc1ccc([N+](=O)[O-])cc1`, which outcome is on record?
**A.** active; weakly positive

**Q.** Which outcome does the source give for `Cc1cc(=O)oc2cc(O)cc(O)c12` here?
**A.** inactive; negative

**Q.** How did the outcome turn out when `O=C(O)C(=O)O` was run?
**A.** inactive; negative

**Q.** `NNC(N)=S` was tested. Which outcome did it give?
**A.** inactive; negative

**Q.** How did the outcome turn out when `O=[N+]([O-])c1cc([N+](=O)[O-])c2ccccc2c1` was run?
**A.** active; positive

**Q.** How did the outcome turn out when `CCCCCON=O` was run?
**A.** active; positive
